Laboratory results as given in ChEMBL document CHEMBL3044546, “Synthesis of inhibitors of imidazole glycerol phosphate dehydratase” (Bioorg Med Chem Lett, 1996).

system: not listed separately; assay: Inhibition of Saccharomyces cerevisiae imidazole glycerol-phosphate dehydratase expressed in Escherichia coli

Row | SMILES | IC50 [µM] | Ki [µM]
1 | O=C(O)C(OCCC(O)Cn1cncn1)C(=O)O (centres undefined) | 30 | –
2 | O=C(O)C(CCC(O)c1nc[nH]n1)C(=O)O (centres undefined) | 6 | –
3 | O=P(O)(O)CC(O)Cn1cncn1 (centres undefined) | – | 0.0006
4 | O=P(O)(O)CCC(O)c1nc[nH]n1 (centres undefined) | 0.13 | 0.04
5 | O=P(O)(O)COCCNc1nc[nH]n1 | 5 | –

The next lines start with results.

Row | IC50 [µM] | SMILES | Ki [µM]
6 | 80 | O=P(O)(O)CCCCC(O)c1nc[nH]n1 (centres undefined) | –
7 | 100 | O=C(O)C(OCC(O)Cn1cncn1)C(=O)O (centres undefined) | –
8 | 7 | O=P(O)(O)CSCC(O)Cn1cncn1 (centres undefined) | –
9 | < 1 | O=P(O)(O)COCC(O)Cn1cncn1 (centres undefined) | –
10 | 10 | CNC(CC(O)CCP(=O)(O)O)c1nc[nH]n1 (centres undefined) | –
11 | > 500 | O=C(O)C(CCCC(O)c1nc[nH]n1)C(=O)O (centres undefined) | –
12 | > 500 | O=C(O)C(CC(O)c1nc[nH]n1)C(=O)O (centres undefined) | –

system: Saccharomyces cerevisiae; assay: Inhibition of Saccharomyces cerevisiae imidazole glycerol-phosphate dehydratase expressed in Escherichia coli at 1 uM

Row | inhibition [%] | SMILES
13 | 80 | O=P(O)(O)COCC(O)Cn1cncn1 (centres undefined)
